Measured values from patent US20220331415A1, “IMMUNOACTIVE MICROPARTICLES AND USES THEREOF” (The Regents of the University of California, priority 2019, published 2022).

B1: IL-2 superkine: artificial variant of IL-2 containing mutations L80F/R81D/L85V/I86V/I92F (SEQ ID NO: 3) (protein)
chain: MGEFAPTSSSTKKTQLQLEHLLLDLQMILNGINNYKNPKLTRMLTFKFYMPKKATELKHLQCLEEELKPLEEVLNLAQSKNFHFDPRDVVSNINVFVLELKGSETTFMCEYADETATIVEFLNRWITFCQSIISTLTH

Columns and labels:
[1] = test system: Treg formation (Foxp3+ T cells); assay: Inhibition of Treg formation: Foxp3 expression in naïve T cells co-cultured with microparticles, flow cytometry; format: cell-based; conditions: same concentration of TGF-β inhibitors, galunisertib compared with SB505124, after 4 days
Excerpt: FIG. 16 further describes TGF-β inhibitors galunisertib (LY2157299) and SB505124 (top). […] Naïve T cells were co-cultured with microparticles and flow cytometry is being used after 4 days to evaluate the intracellular Foxp3 expression.
Thus, in one embodiment, an inhibitor or blocker of TGF-β is included or incorporated into the microparticles of the invention. A TGF-β inhibitor (TGF-βi) such as a TGF-β receptor inhibitor may be used. Non-limiting examples include galinusertib (LY2157299) or SB505124. […] This TGFβ inhibitor used for further studies as described in FIGS. 16-20.
To efficiently stimulate the proliferation of cytotoxic T cells, the microparticles of the invention should suppress formation of regulatory T cells (Tregs) from CD4+ cells attracted to the microparticles. Sustained presence of TGF-β inhibitors can suppress Tregs formation. FIG. 15 and FIG. 16 depict two TGF-β inhibitors used here to show the suppression effect. […] Incorporation of β-cyclodextrin was used to increase the affinity and loading of Galunisertib to microparticles (FIG. 17). β-cyclodextrin was conjugated to Alginate or Alginate-Heparin polymers.

TGF-β receptor = conditions: TGF-β inhibitors; cited from earlier work
[2] = compared to IL-2, cited from earlier work

Molecule	Treg suppression (Foxp3 expression, number of Foxp3+ cells) [1]	Treg suppression (Foxp3 expression, number of Foxp3+ cells) ([1]; listed as Galunisertib)	IC50 (TGF-β receptor)	expansion of cytotoxic T cells [2]	toxicity ([2]; lower Treg expansion, reduced pulmonary edema)	antitumor responses ([2]; in vivo)
Cc1cccc(-c2nn3c(c2-c2ccnc4ccc(C(N)=O)cc24)CCC3)n1 [galunisertib]	stronger Treg suppression	higher degree of Tregs suppression	56 nM	–	–	–
Cc1cccc(-c2[nH]c(C(C)(C)C)nc2-c2ccc3c(c2)OCO3)n1 [SB505124]	–	–	129 nM	–	–	–
B1	–	–	–	superior expansion	proportionally less toxicity	improved antitumor responses
